Source: patent publication US20090186929A1, “Method and agent for inducing apoptosis/cell death in leukemia cells” (U.S. DEPARTMENT OF VETERANS AFFAIRS, priority 2003, published 2009)

Experiments:
[1] = test system: freshly-isolated CLL cells; assay: Exogenous NO donors and drugs on freshly-isolated CLL cells (apoptosis and death); assay type: cell-based, human; settings: combination with fludarabine
Text: We next wanted to examine CLL cells. These malignant cells differ in many ways from ANLL and normal hematopoietic. In addition to their different lineage, they are unique in that they have a very low […], exist primary in the G0 phase of the cell cycle, and have defective apoptosis.

[2] = test system: HL-60 and U937 cells; assay: NO donor inhibition of leukemia cell and colony growth; assay type: cell-based, human
Text: To more closely examine the mechanism of toxicity for myeloid leukemia cells, we did work to determine whether the rate of NO delivery affected its growth inhibition of acute nonlymphocytic leukemia cells. We also wanted to determine whether the NO inhibition of cell growth is associated induction of apoptosis. We treated HL-60 and U937 cells with three compounds that generate the same amount of NO but different rates. […] Furthermore, NO-induced growth inhibition was associated with apoptosis in a rate and concentration-dependent fashion (Reference 39).

[3] = test system: CLL cells; assay: Cytotoxicity of NOS inhibitors for CLL cells in vitro (MTS assay); settings: cytotoxicity for CLL cells in vitro
Text: We worked to optimize the culture of CLL cells (Reference 86). […] These were all tested with and without albumin, fetal bovine serum, human serum, glutamine, insulin, transferrin, selenium, and mercaptoethanol.
Toxicity could be detected by disappearance of cells from the culture (reduction in overall cell number), uptake of trypan blue, propidium iodide uptake (flow cytometry), MTS (4,5-dimethylthiazol-2-yl)-5-(3-carboxymethoxyphenyl)-2-(4-sulfophenyl)-2H-tetrazolium, inner salt) assay (cellular respiration), and several parameters of apoptosis [annexin V assay, DNA content […], and TUNEL assay].

[4] = test system: CLL cells; assay: CLL cell apoptosis (TUNEL assay); assay type: cell-based, human; settings: CLL cells in vitro
Description: Culture of cells with IL-4 or IFN-γ (but not TNF-α, IL-2, IL-6, IL-8, G-CSF, nerve growth factor, or IFN-α) increased NO production. By quantitative RT-PCR, IL-4 increased NOS2 mRNA (FIG. 8). Also, 5 of 5 patients' CLL cells had increases in NOS2 protein (immunoblot) after in vitro treatment with IL-4. Apoptosis (TUNEL assay) was induced by NMMA treatment of the cells, and incubating cells with IL-4 or IFN-y reduced apoptosis. […] Since IL-4 and IFN-gamma induce NOS2 and modulate CD38 expression in CLL cells in vitro, we sought to determine if CLL patients had elevated levels of these cytokines and if the levels related to CD38 expression by the leukemia cells (Reference 87).

[5] = normals, trials for septic shock and migraine; cited from earlier work
[6] = test system: CLL cells; assay: Cytotoxicity of NOS inhibitors for CLL cells in vitro (PI exclusion assay); assay type: cell-based; settings: Homo sapiens, CLL cell, read-out: Mean ED50 ± S.E.M. (CLL cell cytotoxicity)
Description: Toxicity could be detected by disappearance of cells from the culture (reduction in overall cell number), uptake of trypan blue, propidium iodide uptake (flow cytometry), MTS (4,5-dimethylthiazol-2-yl)-5-(3-carboxymethoxyphenyl)-2-(4-sulfophenyl)-2H-tetrazolium, inner salt) assay (cellular respiration), and several parameters of apoptosis [annexin V assay, DNA content (<in), and TUNEL assay].

[7] = molecular target: T1, purified recombinant rat NOS1 oxygenase domain (Rattus norvegicus, UniProt P29476); assay: NOS inhibitor binding (Kd) to NOS1
T1 construct: purified recombinant rat NOS1 oxygenase domain
T1 sequence (P29476 1-720 limits assumed): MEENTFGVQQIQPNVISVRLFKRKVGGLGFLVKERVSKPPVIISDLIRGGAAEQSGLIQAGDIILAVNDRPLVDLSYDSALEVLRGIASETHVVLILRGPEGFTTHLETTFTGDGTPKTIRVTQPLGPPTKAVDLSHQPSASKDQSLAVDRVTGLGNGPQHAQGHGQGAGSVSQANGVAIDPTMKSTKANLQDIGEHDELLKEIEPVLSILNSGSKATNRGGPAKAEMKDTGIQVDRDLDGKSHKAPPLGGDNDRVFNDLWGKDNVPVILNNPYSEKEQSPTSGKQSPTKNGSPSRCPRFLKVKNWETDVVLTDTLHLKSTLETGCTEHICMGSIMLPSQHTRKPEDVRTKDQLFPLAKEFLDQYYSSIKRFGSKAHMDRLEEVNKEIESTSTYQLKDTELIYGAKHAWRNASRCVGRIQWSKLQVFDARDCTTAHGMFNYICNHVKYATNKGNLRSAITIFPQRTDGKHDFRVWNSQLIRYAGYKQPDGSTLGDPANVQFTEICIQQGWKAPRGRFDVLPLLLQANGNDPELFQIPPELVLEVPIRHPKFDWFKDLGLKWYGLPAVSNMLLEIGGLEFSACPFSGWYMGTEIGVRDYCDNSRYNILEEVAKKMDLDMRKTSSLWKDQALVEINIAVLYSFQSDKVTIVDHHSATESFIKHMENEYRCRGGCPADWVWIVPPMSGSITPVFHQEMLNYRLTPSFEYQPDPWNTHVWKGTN

[8] = molecular target: T2, purified recombinant human NOS2 oxygenase domain (Homo sapiens, UniProt P35228); assay: NOS inhibitor binding (Kd) to NOS2
T2 construct: purified recombinant human NOS2 oxygenase domain
T2 sequence (P35228 1-504 limits assumed): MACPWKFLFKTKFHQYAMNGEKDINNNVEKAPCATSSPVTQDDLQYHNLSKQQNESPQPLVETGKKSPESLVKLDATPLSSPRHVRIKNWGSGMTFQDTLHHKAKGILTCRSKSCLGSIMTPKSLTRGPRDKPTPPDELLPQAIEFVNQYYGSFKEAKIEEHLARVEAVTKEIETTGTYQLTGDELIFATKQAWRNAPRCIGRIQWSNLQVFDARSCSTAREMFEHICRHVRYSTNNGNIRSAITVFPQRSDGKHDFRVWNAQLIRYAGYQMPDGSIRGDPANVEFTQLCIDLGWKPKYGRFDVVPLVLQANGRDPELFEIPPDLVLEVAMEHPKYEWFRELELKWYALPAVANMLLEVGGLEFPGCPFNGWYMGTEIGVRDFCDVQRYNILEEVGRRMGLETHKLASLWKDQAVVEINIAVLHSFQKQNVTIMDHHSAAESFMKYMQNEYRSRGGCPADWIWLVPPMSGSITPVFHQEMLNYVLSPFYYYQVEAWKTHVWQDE
Description: […] The cLogP value for each NOS inhibitor was determined using the CLOGP computer program (BioByte, Claremont, Calif.). […] Linear regression was used to examine the correlation between the IC50, Kd and cLogP values and ED50 values.
We determined the dissociation constant for NOS inhibitor binding (Kd) to purified recombinant and NOS2.

## NCCN(CCN)/[N+]([O-])=N/O [DETA-NO, (Z)-1-[N-(2-aminoethyl)-N-(2-ammonioethyl)amino]diazen-1-ium-1,2-diolate-NO]
[1]
  Interaction of DETA-NO with fludarabine in killing CLL cells: acted synergistically
[2]
  Inhibition of leukemia cell and colony growth: most potent inhibitor

## CC(=O)O.CNC(=N)NCCC[C@H](N)C(=O)O [L-NMMA, N^G-Monomethyl-L-arginine monoacetate]
[3]
  ED50 ranking, FIG. 10: very high ED50
[4]
  Apoptosis (TUNEL assay): induced
[5]
  Effects on cardiovascular, liver, or hematopoietic function: no major effects

## C=CCC(=N)NCCC[C@H](N)C(=O)O [Vinyl-L-NIO, N^5-(1-Imino-3-butenyl)-L-ornithine]
[6]
  EC50: 1190 ± 456 µM
[7]
  Kd: 0.1 µM
[8]
  Kd: 0.5 µM
